Experimental data taken from PubChem BioAssay AID1963965 (Molecular Pharmacology Branch, DTP, NCI, 2024).
One block for each compound: values may come before it.

Tested on: 996289-038-R-J1-PDC spheroid viability
Test: Anticancer human tumor 996289-038-R-J1-PDC patient-derived colon adenocarcinoma cell line growth inhibition [PI3K]
Details: spheroids with HUVEC and MSC; for viability, T/C: stronger effect = lower value
Summary of the method: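 Multi-cell spheroids combine tumor cells with HUVEC and human MSCs, treated with targeted agents alone or with inavolisib, alpelisib, duvelisib or copanlisib. Concentrations fall in half-log steps from at or near clinical Cmax, or from 10 microM where Cmax is unknown; viability read-out.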

[1] = curve of first compound, second compound 0.00316 µM
[2] = curve of first compound, second compound 0.01 µM
[3] = curve of first compound, second compound 0.0316 µM
[4] = curve of first compound, second compound 0.1 µM
[5] = curve of first compound, second compound 0.316 µM
[6] = curve of first compound, second compound 1 µM
[7] = second compound 0.00316 µM, first compound 0.0316 µM
[8] = second compound 0.00316 µM, first compound 0.1 µM
[9] = second compound 0.00316 µM, first compound 0.316 µM
[10] = second compound 0.00316 µM, first compound 1 µM
[11] = second compound 0.00316 µM, first compound 3.16 µM
[12] = second compound 0.00316 µM, first compound 10 µM
[13] = second compound 0.01 µM, first compound 0.0316 µM
[14] = second compound 0.01 µM, first compound 0.1 µM
[15] = second compound 0.01 µM, first compound 0.316 µM
[16] = second compound 0.01 µM, first compound 1 µM
[17] = second compound 0.01 µM, first compound 3.16 µM
[18] = second compound 0.01 µM, first compound 10 µM
[19] = second compound 0.0316 µM, first compound 0.0316 µM
[20] = second compound 0.0316 µM, first compound 0.1 µM
[21] = second compound 0.0316 µM, first compound 0.316 µM
[22] = second compound 0.0316 µM, first compound 1 µM
[23] = second compound 0.0316 µM, first compound 3.16 µM
[24] = second compound 0.0316 µM, first compound 10 µM
[25] = second compound 0.1 µM, first compound 0.0316 µM
[26] = second compound 0.1 µM, first compound 0.1 µM
[27] = second compound 0.1 µM, first compound 0.316 µM
[28] = second compound 0.1 µM, first compound 1 µM
[29] = second compound 0.1 µM, first compound 3.16 µM
[30] = second compound 0.1 µM, first compound 10 µM
[31] = second compound 0.316 µM, first compound 0.0316 µM
[32] = second compound 0.316 µM, first compound 0.1 µM
[33] = second compound 0.316 µM, first compound 0.316 µM
[34] = second compound 0.316 µM, first compound 1 µM
[35] = second compound 0.316 µM, first compound 3.16 µM
[36] = second compound 0.316 µM, first compound 10 µM
[37] = second compound 1 µM, first compound 0.0316 µM
[38] = second compound 1 µM, first compound 0.1 µM
[39] = second compound 1 µM, first compound 0.316 µM
[40] = second compound 1 µM, first compound 1 µM
[41] = second compound 1 µM, first compound 3.16 µM
[42] = second compound 1 µM, first compound 10 µM
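Also: spheroids exposed to compounds for seven days before viability read.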
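For viability, T/C in this document: luminescence used as a proxy for viable cell amount; percent viability relative to DMSO vehicle control as 100%.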

- IC50 [1]: > 10 µM
- IC50 [2]: > 10 µM
- IC50 [3]: > 10 µM
- IC50 [4]: 4.89 µM
- IC50 [5]: < 0.0316 µM
- IC50 [6]: < 0.0316 µM
Compound: CC(C)NCC(C(=O)N1CCN(c2ncnc3c2C(C)CC3O)CC1)c1ccc(Cl)cc1 (configuration not stated) + COc1c(OCCCN2CCOCC2)ccc2c3n(c(=NC(=O)c4cnc(N)nc4)nc12)CCN3
- viability, T/C [7]: 98.9%
- viability, T/C [8]: 82.3%
- viability, T/C [9]: 103%
- viability, T/C [10]: 103%
- viability, T/C [11]: 103%
- viability, T/C [12]: 62.2%
- viability, T/C [13]: 87.6%
- viability, T/C [14]: 84.9%
- viability, T/C [15]: 101%
- viability, T/C [16]: 102%
- viability, T/C [17]: 106%
- viability, T/C [18]: 65.3%
- viability, T/C [19]: 86.3%
- viability, T/C [20]: 77.1%
- viability, T/C [21]: 78%
- viability, T/C [22]: 89%
- viability, T/C [23]: 76.1%
- viability, T/C [24]: 51.1%
- viability, T/C [25]: 59.7%
- viability, T/C [26]: 55.8%
- viability, T/C [27]: 57%
- viability, T/C [28]: 66.9%
- viability, T/C [29]: 57.3%
- viability, T/C [30]: 36.7%
- viability, T/C [31]: 32.9%
- viability, T/C [32]: 33.7%
- viability, T/C [33]: 38.1%
- viability, T/C [34]: 32.5%
- viability, T/C [35]: 38.6%
- viability, T/C [36]: 27.1%
- viability, T/C [37]: 24%
- viability, T/C [38]: 18.5%
- viability, T/C [39]: 18%
- viability, T/C [40]: 23%
- viability, T/C [41]: 20.1%
- viability, T/C [42]: 15.3%

- IC50 (compound alone, run of 06/12/2023): > 1 µM
Compound: CC(Nc1ccc2c(c1)OCCn1cc(N3C(=O)OCC3C(F)F)nc1-2)C(N)=O (configuration not stated)
- viability, T/C (compound 0.00316 µM): 105% [middle of 8 runs]
- viability, T/C (compound 0.0316 µM): 95.4% [middle of 8 runs]
- viability, T/C (compound 0.1 µM): 90.3% [middle of 8 runs]
- viability, T/C (compound 0.316 µM): 80% [middle of 8 runs]
- viability, T/C (compound 1 µM): 67.5% [middle of 8 runs]

- IC50 [3]: > 10 µM
- IC50 [4]: > 10 µM
- IC50 [5]: > 10 µM
- IC50 [6]: > 10 µM
- IC50 (curve of first compound, second compound 3.16 µM): > 10 µM
- IC50 (curve of first compound, second compound 10 µM): > 10 µM
Compound: C=CC(=O)N1CCN(c2nc(=O)n(-c3c(C)ccnc3C(C)C)c3nc(-c4c(O)cccc4F)c(F)cc23)C(C)C1 (configuration not stated) + CC(Nc1ncnc2nc[nH]c12)c1cc2cccc(Cl)c2c(=O)n1-c1ccccc1
- viability, T/C [19]: 101%
- viability, T/C [20]: 97.8%
- viability, T/C [21]: 91.2%
- viability, T/C [22]: 100%
- viability, T/C [23]: 107%
- viability, T/C [24]: 106%
- viability, T/C [25]: 113%
- viability, T/C [26]: 93.1%
- viability, T/C [27]: 98.1%
- viability, T/C [28]: 106%
- viability, T/C [29]: 120%
- viability, T/C [30]: 97%
- viability, T/C [31]: 95.1%
- viability, T/C [32]: 106%
- viability, T/C [33]: 107%
- viability, T/C [34]: 107%
- viability, T/C [35]: 105%
- viability, T/C [36]: 105%
- viability, T/C [37]: 93.8%
- viability, T/C [38]: 88.3%
- viability, T/C [39]: 101%
- viability, T/C [40]: 98.6%
- viability, T/C [41]: 112%
- viability, T/C [42]: 99.6%
- viability, T/C (second compound 3.16 µM, first compound 0.0316 µM): 97.2%
- viability, T/C (second compound 3.16 µM, first compound 0.1 µM): 101%
- viability, T/C (second compound 3.16 µM, first compound 0.316 µM): 88.3%
- viability, T/C (second compound 3.16 µM, first compound 1 µM): 101%
- viability, T/C (second compound 3.16 µM, first compound 3.16 µM): 118%
- viability, T/C (second compound 3.16 µM, first compound 10 µM): 107%
- viability, T/C (second compound 10 µM, first compound 0.0316 µM): 103%
- viability, T/C (second compound 10 µM, first compound 0.1 µM): 88.4%
- viability, T/C (second compound 10 µM, first compound 0.316 µM): 90.7%
- viability, T/C (second compound 10 µM, first compound 1 µM): 97.9%
- viability, T/C (second compound 10 µM, first compound 3.16 µM): 105%
- viability, T/C (second compound 10 µM, first compound 10 µM): 95.9%

- IC50 [1]: > 10 µM
- IC50 [2]: > 10 µM
- IC50 [3]: > 10 µM
- IC50 [4]: > 10 µM
- IC50 [5]: > 10 µM
- IC50 [6]: > 10 µM
Compound: C=CC(=O)N1CCN(c2nc(=O)n(-c3c(C)ccnc3C(C)C)c3nc(-c4c(O)cccc4F)c(F)cc23)C(C)C1 (configuration not stated) + CC(Nc1ccc2c(c1)OCCn1cc(N3C(=O)OCC3C(F)F)nc1-2)C(N)=O
- viability, T/C [7]: 91.2%
- viability, T/C [8]: 92.7%
- viability, T/C [9]: 106%
- viability, T/C [10]: 112%
- viability, T/C [11]: 113%
- viability, T/C [12]: 106%
- viability, T/C [13]: 97.8%
- viability, T/C [14]: 96.7%
- viability, T/C [15]: 112%
- viability, T/C [16]: 100%
- viability, T/C [17]: 118%
- viability, T/C [18]: 118%
- viability, T/C [19]: 88.7%
- viability, T/C [20]: 106%
- viability, T/C [21]: 95.3%
- viability, T/C [22]: 105%
- viability, T/C [23]: 97.3%
- viability, T/C [24]: 98.8%
- viability, T/C [25]: 87.5%
- viability, T/C [26]: 81.9%
- viability, T/C [27]: 87.8%
- viability, T/C [28]: 98.9%
- viability, T/C [29]: 85.4%
- viability, T/C [30]: 83%
- viability, T/C [31]: 79.4%
- viability, T/C [32]: 67.7%
- viability, T/C [33]: 75.1%
- viability, T/C [34]: 80.9%
- viability, T/C [35]: 77.1%
- viability, T/C [36]: 77.7%
- viability, T/C [37]: 82.2%
- viability, T/C [38]: 50.2%
- viability, T/C [39]: 60.2%
- viability, T/C [40]: 59.1%
- viability, T/C [41]: 62.6%
- viability, T/C [42]: 67.7%
